The subject of one data set is cucumber downy mildew. As to the kind of experiment: Protective activity in vivo (whole plant spray) against cucumber downy mildew. Particulars: Cucumis sativus, read-out: protective activity (%) against cucumber downy mildew. On the procedure:
(§1) The method is as followed: The whole plant is used in this test. The compound is dissolved in a proper solvent to get mother solution. The proper solvent is selected from acetone, methanol, DMF and so on according to their dissolving capability to the sample. The volume rate of solvent and testing solution (v/v) is equal to or less than 5%. […] The testing solution is sprayed to the host plant by a special plant sprayer. The plant is inoculated with fungus after 24 hours. According to the infecting characteristic of fungus, the plant is stored in a humidity chamber and then transferred into greenhouse after infection is finished. And the other plants are placed in greenhouse directly.

The subject of another data set is wheat powdery mildew. Kind of data set: Protective activity in vivo (whole plant spray) against wheat powdery mildew. Conditions: Triticum aestivum; 100 mg/L, comparative test (Table 130). On the procedure: as §1
Another data set concerns diamond back moth. Kind of data set: Bioactivity test against diamond back moth (airbrush spray, leaf disc). Type of data set: in vivo. Conditions: 600 mg/L, contrastive test (Table 133). On the procedure: (§2) Compounds were dissolved in mixed solvent (acetone:methanol=1:1), and diluted to required concentration with water containing 0.1% of tween 80.
(§3) Diamond back moth, armyworm, peach aphid and carmine spider mite were used as targets and the method of spraying by airbrush was used for determination of insecticidal biassays.
The method of spraying by airbrush: The cabbage leaves were made into plates of 2 cm diameter by use of punch. A test solution (0.5 ml) was sprayed by airbrush at the pressure of 0.7 kg/cm^2 to both sides of every plate. 10 Second instar larvae were put into the petri-dishes after the leaf disc air-dried and 3 replicates were set for each treatment. Then the insects were maintained in observation room (25° C., 60˜70% R.H.). Scores were conducted and mortalities were calculated after 72 h.

The next data set deals with carmine spider mite. As to the kind of experiment: Bioactivity test against carmine spider mite (airbrush spray). The format is in vivo. Conditions: 600 mg/L, contrastive test (Table 135). On the procedure:
as §2, §3
The method: Broadbean shoots with two true leaves in pot were taken, the healthy adults of carmine spider mite were inoculated to the leaves. The adults were counted and then sprayed with airbrush at the pressure of 0.7 kg/cm^2 and at dose of 0.5 ml. 3 replicates were set for each treatment. And then they were maintained in standard observation room. Scores were conducted and mortalities were calculated after 72 hrs.

Another data set relates to rice blast. Kind of data set: microbe, parasite or virus in culture. The format is cell-based. Conditions: Pyricularia oryzae, 24 h, read-out: inhibition rate against rice blast.
The subject of data set [1] is Green peach aphids (Myzus Persicae Sulzer). As to the kind of experiment: Bioactivity test against green peach aphid (airbrush foliar spray). Type of data set: in vivo. Conditions: 100 mg/L, contrastive test (Table 134). The protocol:
as §2, §3
Method: Filter papers were put in culture dishes (Diameter=6 cm), and water was dripped on filter papers for preserving moisture. Green peach aphids (Myzus Persicae Sulzer) were maintained on cabbage. Leaves (Diameter=3 cm) of approximately 15-30 aphids were put in the culture dishes. Bioactivity tests were used the method of Airbrush Foliar Spray, pressure=10 psi (0.7 kg/cm2), spray volume=0.5 mL. The studies were conducted at […] 25±1 C in incubator cabinets with 60±5% RH. Survey the survival aphids after 48 h and calculate the death rates.

The subject of another data set is corn rust. Kind of data set: Protective activity in vivo (whole plant spray) against corn rust. Conditions: comparative test (Table 131). On the procedure: as §1
Another data set relates to cucumber anthracnose. Kind of data set: Protective activity in vivo (whole plant spray) against cucumber anthracnose. Particulars: Cucumis sativus; 100 mg/L, comparative test (Table 132); read-out: protective activity (%) against cucumber anthracnose. On the procedure: as §1
A further data set has as its system cucumber gray mold. Kind of data set: Fungicidal activity in vitro (96-well, inhibition rate) against cucumber gray mold. Type of data set: cell-based. Conditions: 24 hours.

Read-outs that look alike come from different tables or passages of the source.

Regarding `Clc1ccccc1-n1ccc(OCCNc2ncnc3ccccc23)n1` [Compound 40-17], the melting point is 186.6 °C. Besides, the inhibition at 25 µg/mL with cucumber downy mildew was found to be 70%.
As to `Cc1nc(C)c(C)c(N(C)Cc2cnn(-c3ccccc3)c2)n1` [CK3], the inhibition at 100 µg/mL with wheat powdery mildew and in the data set on cucumber anthracnose was 0% in each case. For the same compound, the “Insecticidal activity against diamond back moth (%)” value in the data set with diamond back moth is 0%. The “Insecticidal activity against carmine spider mite (%)” value in the data set with carmine spider mite turned out to be 56%. Moreover, the inhibition at 25 ppm in the data set on rice blast and in the data set with cucumber gray mold was 0% each time. For the same compound, the “Insecticidal activity against peach aphid (%)” value in [1] is listed as 30%. The “control effect against corn rust (%)” value in the data set with corn rust (25 mg/L) came to 0%; with corn rust (100 mg/L), 20%. Moreover, in the data set on cucumber downy mildew (25 mg/L, comparative test (Table 129)), the inhibition at 25 µg/mL was 0%.

(Values after US11008339B2, “Substituted pyrazole compounds containing pyrimidine and preparation method and use thereof” (Shenyang Sinochem Agrochemicals R&D Co., Ltd., priority 2015, dated 2021).)
